# Test results as given in patent publication US11365199B2, “Pyrazole compounds as modulators of FSHR and uses thereof” (Merck Patent GmbH, priority 2013, dated 2022).
# Biological target: T1, FSHR (Homo sapiens, UniProt P23945)
# T1 construct: expressed in transfected cells; host or cells: CHO (Cho-FSHR-LUC-1-1-43)
# T1 sequence (P23945 18-695): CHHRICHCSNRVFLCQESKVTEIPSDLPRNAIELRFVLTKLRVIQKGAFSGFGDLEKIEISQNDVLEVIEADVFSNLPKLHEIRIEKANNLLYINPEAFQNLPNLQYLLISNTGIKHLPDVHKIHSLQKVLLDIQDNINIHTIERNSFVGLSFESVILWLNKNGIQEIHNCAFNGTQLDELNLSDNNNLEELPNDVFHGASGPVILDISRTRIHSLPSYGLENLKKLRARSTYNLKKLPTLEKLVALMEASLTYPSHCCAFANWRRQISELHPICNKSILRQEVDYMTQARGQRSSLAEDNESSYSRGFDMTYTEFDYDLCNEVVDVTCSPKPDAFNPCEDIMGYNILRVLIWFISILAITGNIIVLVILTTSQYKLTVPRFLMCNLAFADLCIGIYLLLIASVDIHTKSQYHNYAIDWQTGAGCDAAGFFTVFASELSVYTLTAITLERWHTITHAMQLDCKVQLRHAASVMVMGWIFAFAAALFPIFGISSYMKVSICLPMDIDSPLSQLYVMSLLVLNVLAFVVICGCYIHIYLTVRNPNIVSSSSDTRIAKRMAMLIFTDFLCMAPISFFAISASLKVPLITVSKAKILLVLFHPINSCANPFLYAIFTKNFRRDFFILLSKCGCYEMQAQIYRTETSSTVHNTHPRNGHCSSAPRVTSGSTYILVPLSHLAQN
# Assay: EC50 of cyclic AMP production in CHO FSHR cells + EC20 FSH (Assay A)
# Type: cell-based
# Conditions: CHO FSHR cells + EC20 FSH, cAMP HTRF; read-out: Assay A: EC50 of cyclic AMP production
# Outline: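 cAMP HTRF read-out (665 nm/620 nm ratio) after 1 h at 37° C of Cho-FSHR-LUC cells treated with serially diluted test compound plus EC20 FSH ([…]) and IBMX (final 200 μM). Responses given as percent of maximal FSH-standard effect.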
row,Structure (SMILES),EC50
1,"COc1cc2c(cc1C=C(C)C)-c1c(c(C(=O)N(C)C(C)(C)C)nn1-c1nccs1)CO2 [Compound 89, 7-Methoxy-8-(2-methyl-propenyl)-1-thiazol-2-yl-1,4-dihydro-chromeno[4,3-c]pyrazole-3-carboxylic Acid tert-butyl-methyl-amide]",< 100 nM
2,"CCOCn1cc(-c2cc3c(cc2OC)OCc2c(C(=O)N(C)C(C)(C)C)nn(-c4ccsc4)c2-3)nn1 [Compound 152, 8-(1-Ethoxymethyl-1H-[1,2,3]triazol-4-yl)-7-methoxy-1-thiophen-3-yl-1,4-dihydro-chromeno[4,3-c]pyrazole-3-carboxylic acid tert-butyl-methyl-amide]",< 100 nM
3,[2H]C([2H])([2H])N(CCCN(C(=O)C1CCC1)C([2H])([2H])[2H])C(=O)c1nn(-c2ccsc2)c2c1COc1cc(OC)c(C=C(C)C)cc1-2 [Compound 69],100 to 1000 nM
4,"COc1cc2c(cc1CC(C)C)-c1c(c(C(=O)N3CCOCC3(C)C)nn1-c1ccsc1)CO2 [Compound 77, (3,3-Dimethyl-morpholin-4-yl)-(8-isobutyl-7-methoxy-1-thiophen-3-yl-1,4-dihydro-chromeno[4,3-c]pyrazol-3-yl)-methanone]",< 100 nM
5,"COc1cc2c(cc1-c1cnn(C(C)C)c1)-c1c(c(C(=O)N3CCOCC3(C)C)nn1-c1ccsc1)CO2 [Compound 191, (3,3-Dimethyl-morpholin-4-yl)-[8-(1-isopropyl-1H-pyrazol-4-yl)-7-methoxy-1-thiophen-3-yl-1,4-dihydro-chromeno[4,3-c]pyrazol-3-yl]-methanone]",< 100 nM
6,"C=CCn1cc(-c2cc3c(cc2OC)OCc2c(C(=O)N4CCOCC4(C)C)nn(-c4ccsc4)c2-3)cn1 [Compound 207, [8-(1-Allyl-1H-pyrazol-4-yl)-7-methoxy-1-thiophen-3-yl-1,4-dihydro-chromeno[4,3-c]pyrazol-3-yl]-(3,3-dimethyl-morpholin-4-yl)-methanone]",< 100 nM
7,[2H]C([2H])([2H])N(C(=O)c1nn(-c2ccsc2)c2c1COc1cc(OC)c(S(=O)(=O)C(C)C)cc1-2)C1(C)COC1 [Compound 199],< 100 nM

# Second part, the molecule after the results:
row,EC50,Structure (SMILES)
1,< 100 nM,[2H]C([2H])([2H])N(CCN1CCOC1=O)C(=O)c1nn(-c2ccsc2)c2c1COc1cc(OC)c(C=C(C)C)cc1-2 [Compound 56]
2,100 to 1000 nM,"COc1cc2c(cc1-c1ccc(F)s1)-c1c(c(C(=O)N(C)C(C)(C)C)nn1-c1ccsc1)CO2 [Compound 54, 8-(5-Fluoro-thiophen-2-yl)-7-methoxy-1-thiophen-3-yl-1,4-dihydro-chromeno[4,3-c]pyrazole-3-carboxylic acid tert-butyl-methyl-amide]"
3,100 to 1000 nM,"COc1cc2c(cc1C1=CCCN(C)C1)-c1c(c(C(=O)N(C)C(C)(C)C)nn1-c1ccsc1)CO2 [Compound 134, 7-Methoxy-8-(1-methyl-1,2,5,6-tetrahydro-pyridin-3-yl)-1-thiophen-3-yl-1,4-dihydro-chromeno[4,3-c]pyrazole-3-carboxylic acid tert-butyl-methyl-amide]"
4,> 5000 nM,"COc1cc2c(cc1-c1ccn(C)n1)-c1c(c(C(=O)N[C@H]3CC[C@@H](O)C3)nn1-c1ccsc1)CO2 [Compound 172, 7-Methoxy-8-(1-methyl-1H-pyrazol-3-yl)-1-thiophen-3-yl-1,4-dihydro-chromeno[4,3-c]pyrazole-3-carboxylic acid ((1S,3R)-3-hydroxy-cyclopentyl)-amide]"
5,100 to 1000 nM,"COc1cc2c(cc1-c1ccn(C)n1)-c1c(c(C(=O)N(C)CC3(C)COC3)nn1-c1ccsc1)CO2 [Compound 102, 7-Methoxy-8-(1-methyl-1H-pyrazol-3-yl)-1-thiophen-3-yl-1,4-dihydro-chromeno[4,3-c]pyrazole-3-carboxylic acid methyl-(3-methyl-oxetan-3-ylmethyl)-amide]"
6,> 5000 nM,[2H]C([2H])([2H])OC1CC(N(C(=O)c2nn(-c3ccsc3)c3c2COc2cc(OC)c(-c4ccn(C)c4)cc2-3)C([2H])([2H])[2H])C1 (stereo not shown) [Compound 142]
